Converted amounts (≈) assume the structure as drawn. Structures can show the parent of a compound that is named as a salt. Where two headings read alike, the source gives them in different places.
Legend:
[1] = tested on: Proteus vulgaris ATCC 6897; assay: Antibacterial activity, minimum growth inhibitory concentration by agar dilution method (PV); type: cell-based
Procedure: (§1) The various compounds of formula (I) of Examples 1-26 were tested for antibacterial activity against 6 microorganisms. […]. In this table, the following symbols are used:
PV: Proteus vulgaris ATCC 6897

[2] = tested on: Bacillus subtilis 10707; assay: Antibacterial activity, minimum growth inhibitory concentration by agar dilution method (BS); type: cell-based
Procedure: as §1
BS: Bacillus subtilis 10707

[3] = tested on: Klebsiella pneumoniae ATCC 10031; assay: microbe, parasite or virus in culture; type: cell-based; settings: ATCC10031, pH 7, read-out: MIC, Klebsiella pneumoniae (KP)
Text: In this table, the following symbols are used:
KP: Klebsiella pneumoniae ATCC 10031

[4] = tested on: Staphylococcus aureus ATCC 6538P; assay: Antibacterial activity, minimum growth inhibitory concentration by agar dilution method (SA); type: cell-based; settings: ATCC6538P
Procedure: as §1
SA: Staphylococcus aureus ATCC 6538P

[5] = tested on: Streptococcus faecalis ATCC 10541; assay: Antibacterial activity, minimum growth inhibitory concentration by agar dilution method (SF); type: cell-based; settings: Enterococcus faecalis
Procedure: as §1
SF: Streptococcus faecalis ATCC 10541

[6] = tested on: Shigella sonnei ATCC 9290; assay: Antibacterial activity, minimum growth inhibitory concentration by agar dilution method (SS); type: cell-based
Procedure: as §1
SS: Shigella sonnei ATCC 9290

[7] = Acute toxicity in mice (LD50, Behrens Kerber's method); settings: mouse, in vivo, ip; ddy mice, single intraperitoneal administration, 14 days observation
Procedure: (§2) The antitumour-activity and toxicity of various compounds of formula (I) were investigated as indicated below.
Each animal of the test group consisting of 5 ddy mice was administered intraperitoneally once with a test compound. […] The LD50 was determined by Behrens Kerber's method.

[8] = tested on: peripheral leucocytes; assay: Effect on the peripheral leucocytes number in Sarcoma 180 bearing mice; type: in vivo; settings: Sarcoma 180 bearing ddy mice; intraperitoneal 24 hours after implantation; blood 4 days later
Procedure: as §2
(4) Effect on the peripheral leucocytes number
Sarcoma 180 solid tumour cells (5×10^6) were subcutaneously implanted into the right arm pit of each mouse (body weight 20±2 g) of a group consisting of 5 male mice (ddy strain). 24 hours after implantation, a test compound was intraperitoneally administered to each animal. 4 days later, blood (each 0.02 ml) was collected from the suborbital plexus vein of each tumour-carrying animal. The collected sample of the blood was dispersed in 9.98 ml of Cell-Kit Seven solution. One drop of saponin solution was added to the sample to dissolve erythrocytes, and then a microcell counter was used to measure the number of leucocytes. On a graph paper, the number of leucocytes was indicated on the y-axis by an arithmetic scale and the dose of the test compound was indicated on the x-axis by a logarithmic scale. The relationship between the number of peripheral leucocytes and the dosage of the test compound was plotted and the dosage corresponding to 4000 peripheral leucocytes/mm^3 (about 1/2 the number of leucocytes of normal mice) was obtained. This value is denoted in Table 5 by WBC4000.

[9] = tested on: Sarcoma 180 solid tumour; assay: Anti-tumour activity against Sarcoma 180 solid tumour in mice; type: in vivo; settings: Mus musculus, sc, 168 h; Sarcoma 180 s.c. in ddy mice; into tail vein 24 hours after implantation; volume at 7 days; read-out: ED50 (dose reducing tumour volume to 50% of control)
Procedure: as §2
(1) Effect against Sarcoma 180 solid tumour cells
5×10^6 cells of Sarcoma 180 solid tumour were intraperitoneally implanted into ddy mice. 7 days later, ascites cells were sampled. The cells were washed once with a sterilized physiological solution of sodium chloride and were used to prepare a cell suspension containing 5×10^7 cells per ml. On each occasion, 0.1 ml of the cell suspension was subcutaneously implanted into the right arm pit of a male mouse (ddy strain; body weight 20±2 g). The test compound was dissolved in a physiological solution of sodium chloride with or without addition of Tween 80 and was administered into the tail vein of each mouse of a group consisting of 5 mice at a dose of 0.1-0.2 ml, 24 hours after the implantation of the tumour cells.
The anti-tumour activity was determined in the following manner. 7 days after the implantation, the major axis (a) and the minor axis (b) of the tumour were measured to calculate a value of "a×b^2 /2" which corresponds to the volume of the tumour. The anti-tumour activity was expressed by the ratio of the volume of the tumours (T) of the group of animals administered with the test compound to the corresponding volume of tumours (c) of the untreated animals.
(2) Determination of ED50
(The amount needed for reducing the volume of Sarcoma 180 solid tumours in mice to 50% on the basis of the corresponding volume of Sarcoma solid tumours in control untreated animals). On graph paper, T/C (the ratio of the volume of tumours of treated and control animals) was indicated by an arithmetic scale on the longitudinal axis and the administered amount of the test compound was indicated by a logarithmic scale on the lateral axis.
The relationship between the dose and T/C was shown by a straight line determined by the method of least squares, from which a dose corresponding to T/C of 0.5 was obtained.

[10] = ATCC6897, pH 7, read-out: MIC, Proteus vulgaris (PV)
[11] = Bacillus subtilis, 10707, pH 7, read-out: MIC, Bacillus subtilis (BS)
[12] = pH 7, read-out: MIC, Staphylococcus aureus (SA)
[13] = ATCC10541, pH 7, read-out: MIC, Streptococcus faecalis (SF)
[14] = ATCC9290, pH 7, read-out: MIC, Shigella sonnei (SS)

Compound	MIC [1, 10] [µg/mL]	MIC [2, 11] [µg/mL]	MIC [3] [µg/mL]	MIC [4, 12] [µg/mL]	MIC [5, 13] [µg/mL]	MIC [6, 14] [µg/mL]	MIC ([1]; ATCC6897, agar dilution method, pH 7.0, read-out: MIC, Proteus vulgaris (PV)) [µg/mL]	MIC ([2]; Bacillus subtilis, 10707, agar dilution method, pH 7.0, read-out: MIC, Bacillus subtilis (BS)) [µg/mL]	MIC ([4]; agar dilution method, pH 7.0, read-out: MIC, Staphylococcus aureus (SA)) [µg/mL]	MIC ([6]; ATCC9290, agar dilution method, pH 7.0, read-out: MIC, Shigella sonnei (SS)) [µg/mL]	MIC ([5]; ATCC10541, agar dilution method, pH 7.0, read-out: MIC, Streptococcus faecalis (SF)) [µg/mL]	LD50 at 336 h [7] [mg/kg]	WBC4000 (dosage corresponding to 4000 peripheral leucocytes/mm^3) [8] [mg/kg]	ED50 [9] [mg/kg]
CCOC(=O)CNC(=O)[C@H](CSSCCNC1=C(C)C(=O)C2=C(C1=O)[C@H](COC(N)=O)[C@@]1(O)[C@@H]3[C@H](CN21)N3C)NC(=O)CC[C@H](N)C(=O)O (some centres unmarked) [Compound 26]	13 (≈ 17.9 µM)	1.6 (≈ 2.2 µM)	25 (≈ 34.3 µM)	6.3 (≈ 8.66 µM)	13 (≈ 17.9 µM)									
CO[C@@]12[C@H](COC(N)=O)C3=C(C(=O)C(C)=C(NCCSSc4c(F)c(F)cc(F)c4F)C3=O)N1C[C@@H]1N[C@@H]12 [Compound 13, 7-N-[2-(2,3,5,6-Tetrafluorophenyldithio)ethyl]mitomycin C]	5 (≈ 8.7 µM)	0.02 (≈ 0.0348 µM)	0.63 (≈ 1.1 µM)	0.16 (≈ 0.278 µM)	0.31 (≈ 0.54 µM)	10 (≈ 17.4 µM)								
CO[C@@]12[C@H](COC(N)=O)C3=C(C(=O)C(C)=C(NCCSSC[C@H](NC(C)=O)C(=O)O)C3=O)N1C[C@@H]1N[C@@H]12 [Compound 19, 7-N-[2-[(N-Acetyl-L-cystein-S-yl)thio]ethyl]mitomycin C potassium salt]	2.5	0.08	0.63	0.63	1.3	> 20								
CO[C@@]12[C@H](COC(N)=O)C3=C(C(=O)C(C)=C(NCCSSCCC(N)C(=O)O)C3=O)N1C[C@@H]1N[C@@H]12 (mixture of isomers) [Compound 24, 7-N-[2-[(DL-Homocystein-S-yl)thio]ethyl]mitomycin C]	1.3	< 0.02	0.31	0.08	0.63	40								
CO[C@@]12[C@H](COC(N)=O)C3=C(C(=O)C(C)=C(NCCSSc4ccccc4)C3=O)N1C[C@@H]1N[C@@H]12 [Compound 1, 7-N-[2-(Phenyldithio)ethyl]mitomycin C]	1.3 (≈ 2.59 µM)	< 0.01	0.31 (≈ 0.617 µM)	0.02 (≈ 0.0398 µM)	0.02 (≈ 0.0398 µM)	20 (≈ 39.8 µM)								
CO[C@@]12[C@H](COC(N)=O)C3=C(C(=O)C(C)=C(NCCSSc4ccc([N+](=O)[O-])cc4)C3=O)N1C[C@@H]1N[C@@H]12 [Compound 8, 7-N-[2-(4-Nitrophenyldithio)ethyl]mitomycin C]	2.5 (≈ 4.57 µM)	0.08 (≈ 0.146 µM)	1.3 (≈ 2.37 µM)	0.16 (≈ 0.292 µM)	0.16 (≈ 0.292 µM)	5 (≈ 9.13 µM)								
CO[C@@]12[C@H](COC(N)=O)C3=C(C(=O)C(C)=C(NCCSSc4ccccc4N)C3=O)N1C[C@@H]1N[C@@H]12 [Compound 2, 7-N-[2-(2-Aminophenyldithio)ethyl]mitomycin C]	2.5 (≈ 4.83 µM)	< 0.02	0.31 (≈ 0.599 µM)	0.04 (≈ 0.0773 µM)	< 0.02	20 (≈ 38.6 µM)								
CO[C@@]12[C@H](COC(N)=O)C3=C(C(=O)C(C)=C(N)C3=O)N1C[C@@H]1N[C@@H]12 [MM-C, Mitomycin C, reference compound]							0.04 (≈ 0.12 µM)	0.01 (≈ 0.0299 µM)	0.02 (≈ 0.0598 µM)	1.3 (≈ 3.89 µM)	0.04 (≈ 0.12 µM)			
CO[C@@]12[C@H](COC(N)=O)C3=C(C(=O)C(C)=C(NCCSSc4ccc(NC(C)=O)cc4)C3=O)N1C[C@H]1[C@@H]2N1C (some centres unmarked) [Compound 6, 7-N-[2-(4-Acetamidophenyldithio)ethyl]porfiromycin]		0.08 (≈ 0.139 µM)	> 20	1.3 (≈ 2.27 µM)	0.63 (≈ 1.1 µM)									
CO[C@@]12[C@H](COC(N)=O)C3=C(C(=O)C(C)=C(NCCSSc4ccc(C)cc4)C3=O)N1C[C@@H]1N[C@@H]12 [Compound 10, 7-N-[2-(4-Methylphenyldithio)ethyl]mitomycin C]	2.5 (≈ 4.84 µM)	0.02 (≈ 0.0387 µM)	1.3 (≈ 2.52 µM)	0.04 (≈ 0.0774 µM)	0.08 (≈ 0.155 µM)	> 20								
CO[C@@]12[C@H](COC(N)=O)C3=C(C(=O)C(C)=C(NCCSSC[C@H](NC(=O)CC[C@H](N)C(=O)O)C(=O)NCC(=O)O)C3=O)N1C[C@@H]1N[C@@H]12 [Compound 22, 7-N-[2-[(γ-L-Glutamyl-L-cysteinylglycin-S-yl)thio]ethyl]mitomycin C potassium salt]	2.5	0.08	0.63	0.31	1.3	> 20								
CC1=C(NCCSSC[C@H](NC(=O)CC[C@H](N)C(=O)O)C(=O)NCC(=O)O)C(=O)C2=C(C1=O)N1C[C@H]3[C@H](N3C)[C@]1(O)[C@H]2COC(N)=O (stereo partly drawn) [Compound 23, 7-N-[2-[(γ-L-glutamyl-L-cysteinylglycin-S-yl)thio]ethyl]-mitomycin D potassium salt]	13	6.3		6.3	6.3									
CCOC(=O)CNC(=O)[C@H](CSSCCNC1=C(C)C(=O)C2=C(C1=O)[C@@H](COC(N)=O)[C@@]1(OC)[C@H]3N[C@H]3CN21)NC(=O)CC[C@H](N)C(=O)O [Compound 25, 7-N-[2-[(γ-L-Glutamyl-L-cysteinyl-ethyl-glycinat-S-yl)thio]ethyl]mitomycin C]	10 (≈ 13.7 µM)	0.04 (≈ 0.055 µM)	2.5 (≈ 3.43 µM)	0.16 (≈ 0.22 µM)	0.63 (≈ 0.866 µM)									
CO[C@@]12[C@H](COC(N)=O)C3=C(C(=O)C(C)=C(NCCSSC(C)(C)[C@@H](N)C(=O)O)C3=O)N1C[C@@H]1N[C@@H]12 [Compound 28]												26.3	16.3	8.2
